Test results as given in EP0937460A2, “Use of an antidiarrheal for the manufacture of a medicament for the treatment of inflammatory conditions” (Adolor Corporation, priority 1994, dated 1995).
Where two headings read alike, the source gives them in different places.

How the values were obtained:
TNF production [1] = assay: Inhibition of TPA-stimulated TNF production in human epidermal keratinocytes (ELISA); assay type: cell-based; settings: for activity at 10 µM: Homo sapiens, epidermal keratinocytes, HEK cells, DRUG [10 µM], stimulation by TPA 10 ng/mL, read-out: TNF LEVEL % Control (LPS alone), Ave. ± S.D.
TNF production [2] = assay: Inhibition of LPS-stimulated TNF production in the mouse macrophage line RAW 264.7 (ELISA); assay type: cell-based; settings: RAW cells; for activity at 10 µM: Mus musculus, RAW264.7, 6 h, DRUG [10 µM], LPS at 10 ng/mL, read-out: TNF LEVEL % Control (LPS alone), Ave. ± S.D.; for effectiveness against LPS-stimulated TNF production (in words): drug 10 µM
Protocol: Cells were passaged at confluence by scraping and routinely plated at a density of 0.25 x 10^6 and 0.5 x 10^6 cells per T-75 and T-150, respectively.
Typically, RAW cells were plated at 0.25 x 10^6 cells per well of a 24-well plate, in 0.5 mL media per well on the day prior to experimentation. […] 1%. Drugs were co-administered with the stimulant, LPS. After a 6-hr incubation period with LPS ± drug (n = 3-4), the media from the experimental wells was harvested, the cells were removed by microcentrifugation, and the media assayed for TNF by ELISA. Drugs were screened at 10 µM for their ability to alter TNF production by cells stimulated with 1 µg/mL or 10 ng/mL LPS. Dexamethasone, an anti-inflammatory corticosteroid, served as the reference for inhibition of the LPS response.

TNF production [3] = assay: Inhibition of LPS-stimulated TNF production in the human monocytic cell line THP-1 (ELISA); assay type: cell-based; settings: for activity at 10 µM / inhibition at 10 µM: Homo sapiens; for activity at 10 µM: read-out: TNF LEVEL % Control (LPS alone), Ave. ± S.D.; for effectiveness against LPS-stimulated TNF production (in words): 10 µM
Protocol: Cultures were maintained by the addition of fresh growth medium to a T-75 or T-150 flask of cells in suspension, or by pelleting the cells and re-suspending them in the appropriate volume of fresh medium. Maximum cell density was 1.0 x 10^6 cells per mL and cultures were seeded at a minimum density of 0.2 x 10^6 cells per ml.
(§1) THP-1 cells were plated into 24-well plates at a density of 1.0 x 10^6 cells per mL in 0.5 mL medium per well. […] For measurement of IL-1α and IL-1β production, THP-1 cells were incubated with 500 ng/mL or 50 ng/mL LPS and incubated for 16 hours. Levels of secreted cytokine were measured in cell supernatants as for TNF. Cell-associated species were measured in cell lysates which were prepared by repetitive freeze-thawing of cells. For in vitro screening, drugs at 10 µM concentration were co-administered with LPS. […] Drug effects on cell viability were assessed by the MTT assay. […] Water-soluble drugs were dissolved in aqueous solutions such as RPMI or deionized H20. The final concentration of DMSO in the incubation medium was at or below 0.01% and that of ethanol was at or below 0. 1%. The effect on cell viability was evaluated by the MTT assay.

hairless mice = assay: DNCB-induced contact hypersensitivity in hairless mice, ear swelling; assay type: in vivo, mouse
Protocol: Similar to what has been commonly reported by other investigators, the specific protocol used in these studies involved the application of DNCB (in an acetone:olive oil 4:1 vehicle) to the skin on the posterior portion of the back of hairless mice. Five days later, DNCB was applied to the dorsal surface of the ears. At the indicated time point, the mice were euthanized, ear thickness was measured, and the samples were processed for either RNA extraction, protein analysis, or histology.
Experiments were carried out in an effort to inhibit the DNCB-induced immune reaction with various drugs. […] The left ear was similarly treated with vehicle.
The ability of amiloride to suppress DNCB-induced ear swelling was also examined. In these experiments, mice were sensitized with DNCB, and, five days later, amiloride (2% w/v in 70% propylene glycol: 30% ethanol) was applied to the right ear and vehicle to the left ear 30 minutes and 8 hours after DNCB challenge.

IL-1β = assay: LPS-stimulated IL-1β production by THP-1 cells; assay type: cell-based, human
Protocol: as §1

IL-1α = assay: LPS-stimulated IL-1α production by THP-1 cells; assay type: cell-based, human
Protocol: as §1

THP-1 cells = assay: MTT assay of THP-1 cell viability
Protocol: as §1

KC mRNA = assay: TPA-induced KC mRNA expression in hairless mouse skin (RT-PCR); settings: verapamil 4% w/v topical; 3 hour; one of three mice; p = 0.04
mice = assay: Skin inflammation induced by 2% sodium lauryl sulfate (SLS) in mice; assay type: in vivo; settings: 2% SLS with near saturated verapamil
Protocol: Following the 24 hour exposure, the Hilltop chambers were removed and, after 18 hours, skin thickness readings were taken. […] Table

humans = assay: Skin inflammation models in humans (2% sodium laurel sulfate or 5% nickel sulfate, 24 hour patch test); assay type: in vivo
Protocol: Human skin inflammation was elicited by either 2% sodium laurel sulfate in normal volunteers (irritant contact dermatitis) or by 5% nickel sulfate in nickel-sensitive individuals (allergic contact dermatitis) using a 24 hour patch test. Following the elicitation, either topical verapamil formulation or a placebo formulation was applied three times daily for two consecutive days on two respective sites. At the end of the two-day topical treatment, the degree of skin inflammation (i.e., erythema, edema and blister formation was assessed by a trained dermatologist. Skin biopsies were taken from the placebo and the active sites and analyzed for skin thickness and TNF levels using immunohistochemical techniques.

TNF mRNA = assay: TPA-induced TNF mRNA expression in hairless mouse skin (RT-PCR); assay type: in vivo; settings: verapamil 4% w/v in ethanol, topical; 3 hour time point; p < 0.01
[4] = 6 h, THP-1 cells, DRUG [10 µM], LPS 1 µg/mL

Compound: O=C1CCC(N2C(=O)c3ccccc3C2=O)C(=O)N1 (centres unmarked) [Thalidomide]
- activity at 10 µM (TNF production [1]): ≥ 100%
- activity at 10 µM (TNF production [2]): 67 ± 37%
- activity at 10 µM (TNF production [3]; [4]): 78 ± 9%

Compound: N=C(N)NC(=O)c1nc(Cl)c(N)nc1N [Amiloride, amiloride]
- ear thickness, % of pre-challenge values (hairless mice; DNCB + amiloride 2% w/v topical (DNCB alone 135%), p < 0.002): 113%
- activity at 10 µM (TNF production [1]): ≥ 100%
- level of cell-associated and secreted IL-1β (in words) (IL-1β; THP-1 cells, 10 µM): reduce the level
- level of cell-associated and secreted IL-1α (in words) (IL-1α; THP-1 cells, 10 µM): reduce the level
- activity at 10 µM (TNF production [2]): 75 ± 25%
- effectiveness against LPS-stimulated TNF production (in words) (TNF production [2]): moderately effective
- activity at 10 µM (TNF production [3]; [4]): 56 ± 15%
- inhibition at 10 µM (TNF production [3]; LPS-stimulated THP-1 cells, drug 10 µM, read-out: inhibition of TNF production): 40%
- effectiveness against LPS-stimulated TNF production (in words) (TNF production [3]; LPS-stimulated THP-1 cells): comparatively more effective
- IC50 value (50% of the maximal inhibition, as defined by effects at 10 µM) (TNF production [3]; LPS-stimulated TNF production, THP-1 cells): within the same range
- THP-1 cell viability (MTT assay) (THP-1 cells): did not impact

Compound: NC(N)=NC(=O)c1nc(Cl)c(N2CCCCCC2)nc1N [hexamethylamiloride]
- effect on TPA-stimulated levels of TNF (in words) (TNF production [1]; human keratinocytes, TPA 10 ng/mL, drug 10 µM): several fold higher
- effectiveness against LPS-stimulated TNF production (in words) (TNF production [2]): tremendous decrease

Compound: CC(C)(C)NCC(O)c1cc(O)cc(O)c1 (centres unmarked) [Terbutaline, terbutaline]
- activity at 10 µM (TNF production [1]): 36 ± 8%
- activity at 10 µM (TNF production [2]): 33 ± 9%
- activity at 10 µM (TNF production [3]; [4]): 12 ± 4%

Compound: COc1ccc(CCN(C)CCCC(C#N)(c2ccc(OC)c(OC)c2)C(C)C)cc1OC (racemic) [(±)-Verapamil, verapamil]
- KC mRNA levels (KC mRNA): significant suppression
- swelling of the ear after DNCB challenge (hairless mice; verapamil 4% w/v topical, initial experiment): some suppression
- ear swelling after DNCB challenge (hairless mice; verapamil 5% w/v topical, n = 6, repeated experiment): significantly reduced
- inhibition at 0.05 µg/mL (IL-1β; Homo sapiens, THP-1, 16 h, read-out: inhibition of IL-1β levels): ~33%
- inhibition at 0.05 µg/mL (IL-1α; Homo sapiens, THP-1, 16 h, read-out: inhibition of IL-1α levels): 40 to 50%
- Skin Thickness (mm, n = 4) (mice; 24 hours occlusion, read 18 hours after removal (2% SLS alone 1.23, untreated 0.59)): 0.65 ± 0.09 mm
- Visual Observation (mice; 24 hours under occlusion): Normal
- activity at 10 µM (TNF production [2]): 36 ± 1%
- patients in whom dermatitis resolved faster on treated sites (humans; challenged with 2% sodium laurel sulfate): 2 out of 3
- patients with skin thickness less on treated sites than placebo sites (humans; topical verapamil three times daily for two days): 4 out of 6
- patients with less TNF in the skin biopsies than placebo sites (humans; topical verapamil three times daily for two days, immunohistochemistry): 4 out of 6
- activity at 10 µM (TNF production [3]; THP-1, 6 h): 46 ± 9%
- inhibition at 10 µM (TNF production [3]; THP-1, read-out: inhibition of TNF production): 54%
- skin TNF mRNA levels compared to TPA alone (TNF mRNA): significant reduction
- THP-1 cell viability (MTT assay) (THP-1 cells; highest dose tested): did not impact

Compound: COC(=O)C1=C(C)NC(C)=C(C(=O)OC(C)C)C1c1cccc2nonc12 (centres unmarked) [Isradipine, 3,5-Pyridinecarboxylic acid, 4-(4-benzofurazanyl)-l,4-dihydro-2,6-dimethyl, methyl 1-methylethyl ester]
- activity at 10 µM (TNF production [1]): 60 ± 7%
- effectiveness against LPS-stimulated TNF production (in words) (TNF production [2]): as effective as dexamethasone
- activity at 10 µM (TNF production [3]; [4]): 77 ± 8%
- effectiveness against LPS-stimulated TNF production (in words) (TNF production [3]; LPS-stimulated THP-1 cells): much less effective
